Source: patent publication US10792287B2, “Methods for treating mitochondrial diseases” (The Regents of the University of California, priority 2015, dated 2020)

Columns and labels:
Ndufs4 KO mice [1] = test: Microglia activation (Iba1 staining of whole mount retinas); type: in vivo, mouse; settings: two weeks (P21-P35) intraperitoneal treatment
[2] = tested on: permeabilized LHON mutant (11778 G>A) cells; test: Complex I-driven ATP synthesis, drug applied to permeabilized LHON mutant cells; type: cell-based; settings: permeabilized cells (30 min) instead of intact cells (2 h); rotenone 0.03 μM
Protocol: Cells were permeabilized with streptolysin O and mitochondrial complex I-driven ATP synthesis was measured in presence of complex I substrates (malate/pyruvate). […] Intact cells were permeabilized with streptolysin O and mitochondrial complex I-driven ATP synthesis was measured in presence of complex I substrates (malate/pyruvate).

LHON cybrids (11778 G>A) = test: Complex I-driven ATP synthesis in rotenone-inhibited LHON mutant cybrids (luciferase-based, high-throughput screen and concentration-response); type: cell-based
[3] = tested on: innate immune/inflammatory response in Ndufs4 KO retina; test: Retinal gene expression of innate immune and inflammatory markers after drug treatment (Example 3); type: in vivo, mouse; settings: Ndufs4 KO mice; doses as in drug formulation
Protocol: The graphs represent RNA expression of B2m (FIG. 21A), Tlr2 (FIG. 21B), Cxc110 (FIG. 21C), Cc15 (FIG. 21D), and Aif1 (FIG. 21E) in the wild type and Ndufs4 knockout retina. Bars represent mean delta Ct values normalized to housekeeping genes, Actb and Mapk1. Error bars represent standard error of the mean. Statistical significance was determined by two-tailed student's t test. * P<0.05, ** P<0.01, **** P<0.0001.
(§1) Wild type and Ndufs4 knockout mice were placed in one of five groups: vehicle, papaverine (20 mg/kg), zolpidem (20 mg/kg), rapamycin (8 mg/kg), or idebenone (200 mg/kg). For papaverine, zolpidem, and rapamycin, drug was dissolved in DMSO which was diluted in 5% PEG-400/5% Tween-20 in PBS. Vehicle contained all components except for the drug. The solution was then sterile filtered and intraperitoneal injections were performed using a 30 gauge needle. Idebenone was administered as a jelly and consumed orally.
We have previously shown that inflammatory gene expression of Aif1, Tlr2, B2m, Cc15, and Cxc110 are all elevated in the Ndufs4 KO mouse compared to wild type by more than 3-fold, indicating an inflammatory pathomechanism of mitochondrial blindness (Yu et al., Proc Natl Acad Sci USA, 2015, 112(42): E5689-98). […] Papaverine, zolpidem, rapamycin, and idebenone were administered to Ndufs4 KO mice to determine whether their protection of vision (FIG. 20) was through an anti-inflammatory mechanism of action. […] Thus, papaverine, zolpidem, and rapamycin appear to protect mitochondrial loss of vision through an antiinflammatory mechanism.

Ndufs4 KO mice [4] = test: Starburst amacrine cell count (ChAT staining of whole retina); type: in vivo, mouse; settings: two weeks (P21-P35) intraperitoneal injections
Protocol: 20× confocal images of whole retina stained with ChAT (marker of starburst amacrine cells) from wild type (FIG. 22A), Ndusf4 KO vehicle treated (FIG. 22B), Ndufs4 KO papaverine treated (FIG. 22C), Ndufs4 KO zolpidem treated (FIG. 22D), and Ndufs4 KO rapamycin treated (FIG. 22E) are shown.
as §1

[5] = tested on: 11778 (G>A) mutant cybrid; test: Mitochondrial copy number (MT-TL1/B2M ratio), mutant cybrids; type: cell-based; settings: LHON mutant cells [11778(G>A)]; 24 hrs exposure
Protocol: (§2) FIGS. 14A-14C illustrate the effect of drugs on the mitochondrial copy number. Difference of mitochondrial copy number between 11778 (G>A) mutant and control cybrids (FIG. 14A). Effect of zolpidem and papaverine on the control healthy cybrid mitochondrial copy number (FIG. 14B) and 11778 (G>A) mutant cybrid mitochondrial copy number (FIG. 14C). Cells were treated with either vehicle or one of the drugs at specified concentration for 24 h. The cells were harvested after 24 h and the ratio between MT-TL1 and B2M was determined. Data is presented as average relative fold change±std. deviation from three independent observations. Statistical significance (p<0.05) is denoted by ‘*’ and was determined by one way ANOVA and Dunett's post hoc test.

control healthy cybrid = test: Mitochondrial copy number (MT-TL1/B2M ratio), control cybrids; type: cell-based; settings: control cells; 24 hrs exposure
Protocol: as §2

Ndufs4 knockout mice = test: Visual cliff test; type: in vivo, mouse; settings: P21-P35 treatment; papaverine 20 mg/kg, zolpidem 20 mg/kg, rapamycin 8 mg/kg i.p.; idebenone 200 mg/kg oral
control cybrids = test: Papaverine response in rotenone-inhibited control cybrids; type: cell-based
Excerpt: FIG. 19A depicts response to papaverine in control cybrids. FIG. 19B depicts response to papaverine in mutant cybrids.

With COc1ccc(Cc2nccc3cc(OC)c(OC)cc23)cc1OC [papaverine] the microglia activation (Ndufs4 KO mice [1]) was “significant inhibition of microglia activation”, the “complex I driven ATP production in permeabilized cells” value [2] was “inhibited complex I driven ATP production” and the fold induction at 10 µM (LHON cybrids (11778 G>A); 20 h, read-out: Fold change of ATP synthesis rate greater than 2x Median Absolution Deviation) was 2.4. For the same compound, the “reversal of rotenone sensitivity of complex I-driven ATP synthesis” value (LHON cybrids (11778 G>A); different concentrations of drug 22 h, then rotenone 0.03 μM 2 h) was “dose-dependently reversed the rotenone sensitivity”, the “protective effect with short treatment of intact cells” value (LHON cybrids (11778 G>A); intact cells treated with papaverine and rotenone 0.03 μM for 2 hrs) was “protective effect of papaverine was observed” and the “concentration-dependent reversal of rotenone-induced ATP synthesis inhibition, comparison of the two hits” value (LHON cybrids (11778 G>A); papaverine vs zolpidem) was “stronger than Zolpidem”. For the same compound, the “innate immune/inflammatory gene expression (B2m, Tlr2, Cxcl10, Ccl5, Aif1) in retina” value [3] was “significantly inhibited a portion of the innate immune/inflammatory response”, the “starburst amacrine cell loss” value (Ndufs4 KO mice [4]) was “less cell loss than vehicle-treated Ndufs4 KO mice” and the “ratio of mtDNA/nDNA” value [5] was “did not significantly change the ratio of mtDNA/nDNA”. For the same compound, the “ratio of mtDNA/nDNA” value (control healthy cybrid) was “did not significantly change the ratio of mtDNA/nDNA”, the “visual function (median # edge detections)” value (Ndufs4 knockout mice) was “visual function was preserved” and the “complex 1-dependent ATP synthesis in normal cells inhibited by rotenone” value (control cybrids) was “dose dependently stimulates complex 1-dependent ATP synthesis”.
